Patent publication US9856274B2, “Substituted pyrazolo[1,5-a]pyridines as PDE-10 inhibitors” (Sunovion Pharmaceuticals Inc., priority 2011, dated 2018)

These compounds were tested against recombinant human PDE-10 enzyme (Homo sapiens (Human), UniProt Q9Y233) (assay: Human PDE-10 inhibition enzyme assay (IMAP PDE Fluorescence Polarization)). Details: recombinant human PDE-10 expressed in baculoviral system; Fluorescein-labeled cAMP/cGMP substrate; 40-minute incubation at 37° C.
Format: biochemical
Procedure: In one embodiment, the compounds provided herein were assayed for their ability to inhibit human PDE-10A. In one embodiment, the activities of the compounds were determined using the Molecular Devices IMAP PDE Fluorescence Polarization assay using recombinant human PDE-10 enzyme expressed in a baculoviral system. Briefly, 10 μL of a compound (0.2 nM-20 μM) was added to either a 96-well half area black plate or a 384-well black plate along with 10 μL of Fluorescein-labeled cAMP/cGMP substrate as per manufacturer's instructions and 10 μL of PDE enzyme (activity 0.1 U). Following a 40-minute incubation at 37° C., 60 μL of IMAP binding reagent was added. The plate was then read on a Perkin Elmer Victor (480-535 nm). The data was analyzed using Prism Software (GraphPad Inc, San Diego, Calif.).

recombinant human PDE-10 enzyme, sequence (Q9Y233 whole entry): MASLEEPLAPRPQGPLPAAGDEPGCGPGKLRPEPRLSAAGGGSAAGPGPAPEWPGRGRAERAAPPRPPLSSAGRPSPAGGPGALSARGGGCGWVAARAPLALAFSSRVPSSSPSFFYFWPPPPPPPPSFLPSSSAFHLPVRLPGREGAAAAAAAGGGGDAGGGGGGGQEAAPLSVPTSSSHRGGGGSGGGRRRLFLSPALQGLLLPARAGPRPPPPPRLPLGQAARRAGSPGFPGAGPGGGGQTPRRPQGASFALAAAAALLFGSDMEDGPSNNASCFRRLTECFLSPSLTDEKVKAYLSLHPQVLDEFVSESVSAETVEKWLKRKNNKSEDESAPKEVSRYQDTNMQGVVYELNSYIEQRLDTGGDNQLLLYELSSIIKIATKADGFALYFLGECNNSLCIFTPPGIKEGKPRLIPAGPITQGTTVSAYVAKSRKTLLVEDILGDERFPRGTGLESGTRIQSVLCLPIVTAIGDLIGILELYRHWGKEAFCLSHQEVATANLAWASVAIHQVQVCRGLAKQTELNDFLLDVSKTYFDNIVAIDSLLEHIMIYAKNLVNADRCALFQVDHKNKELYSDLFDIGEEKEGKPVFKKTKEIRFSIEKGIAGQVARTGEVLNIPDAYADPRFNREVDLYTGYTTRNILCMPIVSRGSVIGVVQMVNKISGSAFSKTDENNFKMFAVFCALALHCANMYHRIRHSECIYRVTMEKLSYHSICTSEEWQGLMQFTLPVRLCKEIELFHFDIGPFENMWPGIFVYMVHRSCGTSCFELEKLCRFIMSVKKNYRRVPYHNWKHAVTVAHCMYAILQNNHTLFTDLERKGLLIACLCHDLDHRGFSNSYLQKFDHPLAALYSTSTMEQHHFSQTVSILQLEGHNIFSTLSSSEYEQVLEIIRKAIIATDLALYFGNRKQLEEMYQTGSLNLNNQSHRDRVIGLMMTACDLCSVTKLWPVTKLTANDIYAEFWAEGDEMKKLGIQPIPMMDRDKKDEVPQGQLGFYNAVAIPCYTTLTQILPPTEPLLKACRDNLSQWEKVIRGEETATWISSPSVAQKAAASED

Row | SMILES | IC50
1 | Cc1ncc(C)n2nc(CCc3cn4ccccc4n3)nc12 [Compound 1] | 10 to 100 nM
2 | Cc1ncc(C)n2nc(CCc3nc4ccccn4n3)nc12 [Compound 3] | > 500 nM
3 | Cn1c(CCc2nc3ccccc3o2)nc2c3cccnc3ccc21 [Compound 4] | 100 to 500 nM
4 | Cn1c(CCc2nc3ccccn3n2)nc2c3cccnc3ccc21 [Compound 5] | 10 to 100 nM
5 | Cc1ncc(C)n2nc(CCc3nc4c5cccnc5ccc4n3C)nc12 [Compound 6] | ≤ 10 nM
6 | Cc1ncc(C)n2nc(CCc3nc4c5cccnc5sc4n3C)nc12 [Compound 7] | ≤ 10 nM
7 | Cc1cccc2nc(CCc3nc4c5cccnc5ccc4n3C)nn12 [Compound 8] | ≤ 10 nM
8 | Cc1cccn2nc(CCc3nc4c5cccnc5ccc4n3C)nc12 [Compound 9] | ≤ 10 nM
9 | Cc1cnc(C)n2nc(CCc3nc4c5cccnc5ccc4n3C)nc12 [Compound 10] | 10 to 100 nM
10 | Cc1ccc(C)n2nc(CCc3nc4c5cccnc5ccc4n3C)nc12 [Compound 11] | ≤ 10 nM
11 | Cc1ncc(C)n2nc(CCc3nc4ccc5ncccc5n4n3)nc12 [Compound 12] | 100 to 500 nM
12 | Cc1ncc(C)n2nc(CCc3nc4c5cccnc5ccn4n3)nc12 [Compound 13] | 10 to 100 nM
13 | Cc1cccc2nc(CCc3nc4c5cccnc5ccn4n3)nn12 [Compound 14] | 10 to 100 nM
14 | c1cnc2ccn3nc(CCc4nc5ccccn5n4)nc3c2c1 [Compound 15] | > 500 nM
15 | Cc1ccc(C)n2nc(CCc3nc4c5cccnc5ccn4n3)nc12 [Compound 16] | ≤ 10 nM
16 | Cc1cc(C)n2nc(CCc3nc4c5cccnc5ccn4n3)nc2n1 [Compound 17] | 10 to 100 nM
17 | Cc1ncc(C)n2nc(CCc3nc4c5ncccc5ccc4n3C)nc12 [Compound 18] | ≤ 10 nM
18 | Cc1ncc(C)n2nc(CCc3nc4c5nccnc5ccc4n3C)nc12 [Compound 19] | ≤ 10 nM
19 | Cn1c(CCc2nc3ccccn3n2)nc2c3ncccc3ccc21 [Compound 20] | 100 to 500 nM
20 | Cn1c(CCc2nc3ccccn3n2)nc2c3nccnc3ccc21 [Compound 21] | 100 to 500 nM
21 | c1cnc2c(c1)ccn1nc(CCc3nc4ccccn4n3)nc21 [Compound 22] | > 500 nM

Row | SMILES | IC50
22 | Cc1cccc2nc(CCc3nc4n(n3)CCc3ncccc3-4)nn12 [Compound 23, 2-(2-(5-Methyl-[1,2,4]triazolo[1,5-a]pyridin-2-yl)ethyl)-5,6-dihydro-[1,2,4]triazolo[5,1-f][1,6]naphthyridine] | > 500 nM
23 | Cc1ncc(C)n2nc(CCc3nc4c5cccnc5ccc4n3C)cc12 [Compound 24] | ≤ 10 nM
24 | Cc1ncc(C)n2cc(CCc3nc4c5cccnc5ccc4n3C)nc12 [Compound 25] | 10 to 100 nM
25 | Cn1c(CCc2cn3ccccc3n2)nc2c3cccnc3ccc21 [Compound 26] | > 500 nM
26 | Cc1ncc(C)n2cc(CCc3nc4c5cccnc5ccn4n3)nc12 [Compound 27] | 10 to 100 nM
27 | Cc1ncc(C)n2nc(CCc3nc4c(ccc5ncccc54)[nH]3)cc12 [Compound 28] | 10 to 100 nM
28 | Cc1ncc(C)n2nc(C(C)Cc3nc4c5cccnc5ccc4n3C)nc12 (centres unmarked) [Compound 29] | ≤ 10 nM
29 | Cc1ncc(C)n2nc(CC(C)c3nc4c5cccnc5ccc4n3C)nc12 (centres unmarked) [Compound 30] | 10 to 100 nM
30 | Cn1c(CCc2cn3ccncc3n2)nc2c3cccnc3ccc21 [Compound 31] | > 500 nM
31 | Cc1ccc(C)n2cc(CCc3nc4c5cccnc5ccc4n3C)nc12 [Compound 32] | 10 to 100 nM
32 | Cc1ccc(Cl)c2cc(CCc3nc4c5cccnc5ccc4n3C)nn12 [Compound 33] | ≤ 10 nM
33 | Cc1ccc(C)n2cc(CCc3nc4c5cccnc5ccn4n3)nc12 [Compound 34] | 100 to 500 nM
34 | Cc1ncc(C)n2nc(CCc3nc4c5cccnc5ccn4n3)cc12 [Compound 35] | 10 to 100 nM
35 | Cc1ncc(C)n2nc(CCc3nc4c(ccc5ncccc54)[nH]3)nc12 [Compound 36] | ≤ 10 nM
36 | Cc1ncc(C)n2nc(CCc3nc4c5c(ccc4n3C)CCCC5)nc12 [Compound 37] | ≤ 10 nM
37 | Cc1ncc(C)n2nc(CCc3nc4c5c(ccn4c3C)CCCC5)nc12 [Compound 38] | ≤ 10 nM
38 | Cc1ncc(C)n2nc(CCc3nc4c5cccnc5ccn4c3C)nc12 [Compound 39] | ≤ 10 nM
39 | Cc1c(CCc2nc3c(F)ccc(C)n3n2)nc2c3cccnc3ccn12 [Compound 40] | ≤ 10 nM
40 | Cc1ncc(C)n2nc(CCc3nc4c5c(ccn4c3C)NCCO5)nc12 [Compound 41] | 10 to 100 nM
41 | Cc1ncc(C)n2nc(CCc3nc4c5c(ccc4n3C)OCCO5)nc12 [Compound 42] | ≤ 10 nM
